Data as given in the supplement of paper PMC11208160.

Assay: recombinant UMI read abundance after kanamycin selection (control-corrected) (log10(CPM+1)); higher = more efficient recombination; extreme values may be limits of the assay; sequences stand for … in AGTGCAGAGAAAATCGGCCAGTTTTCTCTGCCTGCAGTCCGCATGCCGTGGGACCCCTTGGGTTCTAACCTGTTGCCTAGATTTATGCAGCGGACTGCCTTTCTCCCAAAGTGATAAACCGG…AGGTTGGTTTCACT; site = the 11-nt donor
Outline: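 Reported values are log10(CPM+1) from a pooled Escherichia coli screen of donor and donor-binding-loop pairs for the IS621 bridge recombinase. Selection used IPTG (0.07 mM) plus kanamycin, against unselected plating, each in two replicates. Recombinant UMIs were amplified across the donor–target junction, sequenced, converted to CPM, averaged over replicates and scaled by control-derived factors.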
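Further: IS621 bridge recombinase in Escherichia coli cells against a fixed T5 target plasmid.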

Sequence | recombinant UMI read abundance (log10)
CACCGTCCATGGACCGGTTTTCCCGGTAATCCGTATTTGAT (site TACCGTCCTAT) | 0.0173
CACCTCTCATGGACCGGTTTTCCCGGTAATCCGTATTTGCT (site CACCTCTCTAG) | 2.84
CACCTGCCATGGACCGGTTTTCCCGGTAATCCGTATTTGTC (site CACCTGCCTGA) | 0
CACCTTACATGGACCGGTTTTCCCGGTAATCCGTATTTGGG (site CACCTTACTCC) | 0.0575
CACGCAGCATGGACCGGTTTTCCCGGTAATCCGTATTTGCT (site CAAGCAGCTAG) | 0
CACGCAGCATGGACCGGTTTTCCCGGTAATCCGTATTTGCT (site CACGCAGCTAG) | 2.31
CACGCAGCATGGACCGGTTTTCCCGGTAATCCGTATTTGCT (site CAGGCAGCTAG) | 0.261
CACGCAGCATGGACCGGTTTTCCCGGTAATCCGTATTTGCT (site CATGCAGCTAG) | 0
CACGCCGCATGGACCGGTTTTCCCGGTAATCCGTATTTGGT (site TTAAGTTCTTG) | 0
CACGCGTCATGGACCGGTTTTCCCGGTAATCCGTATTTGAG (site CACGCGTCTCT) | 2.11
CACGGCACATGGACCGGTTTTCCCGGTAATCCGTATTTGTT (site CACGGCACTAA) | 1.6
CACGGCACATGGACCGGTTTTCCCGGTAATCCGTATTTGTT (site CACGGCCCTAA) | 0.00343
CACGGCACATGGACCGGTTTTCCCGGTAATCCGTATTTGTT (site CACGGCGCTAA) | 0.6
CACGGCACATGGACCGGTTTTCCCGGTAATCCGTATTTGTT (site CACGGCTCTAA) | 0.746
CACGGCTCATGGACCGGTTTTCCCGGTAATCCGTATTTGTT (site CACGGCACTAA) | 0.963
CACGGCTCATGGACCGGTTTTCCCGGTAATCCGTATTTGTT (site CACGGCCCTAA) | 0.277
CACGGCTCATGGACCGGTTTTCCCGGTAATCCGTATTTGTT (site CACGGCGCTAA) | 0.0461
CACGGCTCATGGACCGGTTTTCCCGGTAATCCGTATTTGTT (site CACGGCTCTAA) | 3.26
CACGTACCATGGACCGGTTTTCCCGGTAATCCGTATTTGAA (site CACGTACCTTT) | 0.24
CACGTCACATGGACCGGTTTTCCCGGTAATCCGTATTTGAG (site CACGTCACTCT) | 1.36
CACTACGCATGGACCGGTTTTCCCGGTAATCCGTATTTGGA (site CACTACGCTTC) | 1.41
CACTCATCATGGACCGGTTTTCCCGGTAATCCGTATTTGCC (site CACTCATCTGG) | 1.74
CACTCATCATGGACCGGTTTTCCCGGTAATCCGTATTTGCC (site CACTCCTCTGG) | 0.652
CACTCATCATGGACCGGTTTTCCCGGTAATCCGTATTTGCC (site CACTCGTCTGG) | 0
CACTCATCATGGACCGGTTTTCCCGGTAATCCGTATTTGCC (site CACTCTTCTGG) | 0

Sequence | recombinant UMI read abundance (log10)
CACTCCACATGGACCGGTTTTCCCGGTAATCCGTATTTGCC (site CACTCCACTGG) | 2.65
CACTCCACATGGACCGGTTTTCCCGGTAATCCGTATTTGCC (site CACTCCCCTGG) | 0
CACTCCACATGGACCGGTTTTCCCGGTAATCCGTATTTGCC (site CACTCCGCTGG) | 1.8
CACTCCACATGGACCGGTTTTCCCGGTAATCCGTATTTGCC (site CACTCCTCTGG) | 1.26
CACTCCGCATGGACCGGTTTTCCCGGTAATCCGTATTTGCC (site CACTCCACTGG) | 2.05
CACTCCGCATGGACCGGTTTTCCCGGTAATCCGTATTTGCC (site CACTCCCCTGG) | 0
CACTCCGCATGGACCGGTTTTCCCGGTAATCCGTATTTGCC (site CACTCCGCTGG) | 2.73
CACTCCGCATGGACCGGTTTTCCCGGTAATCCGTATTTGCC (site CACTCCTCTGG) | 1.36
CACTCCTCATGGACCGGTTTTCCCGGTAATCCGTATTTGAG (site CACTCCTCTCT) | 0.883
CACTCCTCATGGACCGGTTTTCCCGGTAATCCGTATTTGCA (site CACTCCTCTAG) | 0.743
CACTCCTCATGGACCGGTTTTCCCGGTAATCCGTATTTGCA (site CACTCCTCTCG) | 1.09
CACTCCTCATGGACCGGTTTTCCCGGTAATCCGTATTTGCA (site CACTCCTCTGG) | 1.21
CACTCCTCATGGACCGGTTTTCCCGGTAATCCGTATTTGCA (site CACTCCTCTTG) | 2.98
CACTCCTCATGGACCGGTTTTCCCGGTAATCCGTATTTGCC (site AACTCCTCTGG) | 0.563
CACTCCTCATGGACCGGTTTTCCCGGTAATCCGTATTTGCC (site CAATCCTCTGG) | 0.883
CACTCCTCATGGACCGGTTTTCCCGGTAATCCGTATTTGCC (site CACACCTCTGG) | 1.79
CACTCCTCATGGACCGGTTTTCCCGGTAATCCGTATTTGCC (site CACCCCTCTGG) | 2.8
CACTCCTCATGGACCGGTTTTCCCGGTAATCCGTATTTGCC (site CACGCCTCTGG) | 0.524
CACTCCTCATGGACCGGTTTTCCCGGTAATCCGTATTTGCC (site CACTACTCTGG) | 1.17
CACTCCTCATGGACCGGTTTTCCCGGTAATCCGTATTTGCC (site CACTCATCTGG) | 0.425
CACTCCTCATGGACCGGTTTTCCCGGTAATCCGTATTTGCC (site CACTCCACTGG) | 0.838
CACTCCTCATGGACCGGTTTTCCCGGTAATCCGTATTTGCC (site CACTCCCCTGG) | 0.105
CACTCCTCATGGACCGGTTTTCCCGGTAATCCGTATTTGCC (site CACTCCGCTGG) | 0.0071
CACTCCTCATGGACCGGTTTTCCCGGTAATCCGTATTTGCC (site CACTCCTCTAG) | 1.36
CACTCCTCATGGACCGGTTTTCCCGGTAATCCGTATTTGCC (site CACTCCTCTCG) | 0.00305

Sequence | recombinant UMI read abundance (log10)
CACTCCTCATGGACCGGTTTTCCCGGTAATCCGTATTTGCC (site CACTCCTCTGA) | 0.906
CACTCCTCATGGACCGGTTTTCCCGGTAATCCGTATTTGCC (site CACTCCTCTGC) | 0.0424
CACTCCTCATGGACCGGTTTTCCCGGTAATCCGTATTTGCC (site CACTCCTCTGG) | 3.11
CACTCCTCATGGACCGGTTTTCCCGGTAATCCGTATTTGCC (site CACTCCTCTGT) | 2.74
CACTCCTCATGGACCGGTTTTCCCGGTAATCCGTATTTGCC (site CACTCCTCTTG) | 2.48
CACTCCTCATGGACCGGTTTTCCCGGTAATCCGTATTTGCC (site CACTCGTCTGG) | 0
CACTCCTCATGGACCGGTTTTCCCGGTAATCCGTATTTGCC (site CACTCTTCTGG) | 0
CACTCCTCATGGACCGGTTTTCCCGGTAATCCGTATTTGCC (site CACTGCTCTGG) | 0.00619
CACTCCTCATGGACCGGTTTTCCCGGTAATCCGTATTTGCC (site CACTTCTCTGG) | 0
CACTCCTCATGGACCGGTTTTCCCGGTAATCCGTATTTGCC (site CAGTCCTCTGG) | 1.2
CACTCCTCATGGACCGGTTTTCCCGGTAATCCGTATTTGCC (site CATTCCTCTGG) | 1.62
CACTCCTCATGGACCGGTTTTCCCGGTAATCCGTATTTGCC (site CCCTCCTCTGG) | 0.97
CACTCCTCATGGACCGGTTTTCCCGGTAATCCGTATTTGCC (site CGCTCCTCTGG) | 1.95
CACTCCTCATGGACCGGTTTTCCCGGTAATCCGTATTTGCC (site CTCTCCTCTGG) | 2.29
CACTCCTCATGGACCGGTTTTCCCGGTAATCCGTATTTGCC (site GACTCCTCTGG) | 0
CACTCCTCATGGACCGGTTTTCCCGGTAATCCGTATTTGCC (site TACTCCTCTGG) | 1.39
CACTCCTCATGGACCGGTTTTCCCGGTAATCCGTATTTGCG (site CACTCCTCTAG) | 1.11
CACTCCTCATGGACCGGTTTTCCCGGTAATCCGTATTTGCG (site CACTCCTCTCG) | 1.71
CACTCCTCATGGACCGGTTTTCCCGGTAATCCGTATTTGCG (site CACTCCTCTGG) | 0
CACTCCTCATGGACCGGTTTTCCCGGTAATCCGTATTTGCG (site CACTCCTCTTG) | 2.29
CACTCCTCATGGACCGGTTTTCCCGGTAATCCGTATTTGGC (site CACTCCTCTGA) | 0.526
CACTCCTCATGGACCGGTTTTCCCGGTAATCCGTATTTGGC (site CACTCCTCTGC) | 2.75
CACTCCTCATGGACCGGTTTTCCCGGTAATCCGTATTTGGC (site CACTCCTCTGG) | 0.943
CACTCCTCATGGACCGGTTTTCCCGGTAATCCGTATTTGGC (site CACTCCTCTGT) | 2.45
CACTGGGCATGGACCGGTTTTCCCGGTAATCCGTATTTGGA (site CACTAGGCTTC) | 0.812
